Results published in patent publication US8217042B2, “Pyridopyrazines and their use as modulators of kinases” (Zentaris GmbH, priority 2005, dated 2012).

How the values were obtained:
PI3K →pAkt = assay: Cellular substrate phosphorylation (Western blotting), PI3K substrate Akt; type: cell-based; details: 5 h, tumour cell line
Description: This method enables a statement of whether the kinase modulator investigated achieves the desired effect in a cellular context too, i.e., in this case, a substrate protein downstream of the target kinase is examined for its phosphorylation status. To this end, the cells incubated with substance are lysed and the overall protein is separated on a reducing polyacrylamide gel. Subsequently, the proteins are transferred by means of Western blotting to a PVDF membrane and the substrate bands sought are made visible with specific antibodies and a suitable detection method. The substrate proteins downstream of the target kinases are detected simultaneously with an anti-phospho antibody which is specific in each case and simultaneously a total antibody which recognizes the substrate total protein. The duplex technology of the ODYSSEY imager (LiCOR) enables this simultaneous measurement. The intensity of the total substrate bands is employed to normalize and quantify the phosphorylation inhibition or activation.
Suitable tumour cell lines (e.g. BxPC3, Hct116 or MDA MB468) were seeded into 6-well microtitre plates in a defined cell count (e.g. 350 000 cells/well for BxPC3 and Hct116) in the particular standard complete media and then incubated overnight in an incubator at 37° C., 5% CO2 and 95% air humidity. The cells were then incubated further for a further 24 h under reduced-serum conditions, i.e. in the particular medium except at only 0.25% serum. The test substances were made up as stock solutions (10 mM) in DMSO and incubated with the cells at final concentrations of 5, 15.8 and 50 μM for 5 h. This was followed by cell lysis in 25 mM Tris, 150 mM NaCl, 10 mM sodium pyrophosphate, 2 mM EGTA, 25 mM beta-glycerophosphate, 25 mM NaF, 10% glycerol, 0.75% NP-40, 100 μM NaVO4 buffer. After protein quantification by means of BCA (bicinchonic acid protein assay kit, Sigma) assay, amounts of protein of about 20 μg per track were separated on a Lammli polyacrylamide gel and then transferred onto a PVDF membrane (Millipore) by means of semi-dry Western blotting at 0.8 mA/cm^2 for 1 h. This was followed by prehybridization of the membrane for 1 hour in I-block reagent (Applied Biosystems) and overnight incubation with the specific antibodies. To determine the Erk and PI3K inhibition, the next substrates Rsk1 downstream were detected with the total antibody (Rsk #sc-231g C-21, Santa Cruz) and the phospho antibody (Phospho-p90RSK (S380) #9341, NEB Cell Signalling) and Akt with the total antibody (Akt1 #sc-20, Santa Cruz) and the phospho antibody (Phospho-Akt (Ser 473) #9271, NEB Cell Signaling). After the membrane had been washed, the secondary antibodies were incubated with anti-rabbit IR Dye 800 (#611-732-127, Rockland) for the phospho antibody and anti-goat Alexa Fluor 680 (#A-21081, […]) for the total protein antibody. After incubation for 30 min at room temperature in the dark, the hybridization of the detection antibody was detected on the membrane by scanning in an ODYSSEY imager (LiCOR).

PI3Kalpha = molecular target: T1, PI3Kalpha (Homo sapiens, UniProt P42336); assay: Cell-free kinase assay (ALPHA technology), PI3K-ALPHA; type: biochemical; details: 100 μM ATP, recombinant human kinase
T1 construct: in some cases as full-length kinases, in some cases as truncated fragments; purchased Upstate 14-602
Description: The inhibitory effect of the inventive compounds was tested on various human serine/threonine kinases, tyrosine kinases and lipid kinases in enzymatic assays. Recombinant human kinases, for example Erk2, PI3Kalpha, -beta, -gamma, -delta, p38alpha, p38gamma, Jnk1, Jnk2 and others were used, in some cases as full-length kinases, in some cases as truncated fragments—but at least consisting of the functional kinase domains. The commercial kinase proteins (Proqinase, Upstate) were used as recombinant fusion proteins with GST (glutathione S-transferase) tag or His tag. Depending on the substrate type, the different kinase reactions were quantified by means of suitable ALPHA™ beads (PerkinElmer).
The substrate testing on the Erk assay is described in detail below. Selected test results of the Erk2, PI3Kalpha assays are cited below. […] The kinase reaction was then stopped by adding 10 μl of the ALPHA bead mix (10 μg/ml, #6760617/PerkinElmer), pre-incubated with anti-phospho MBP antibody (320 μM, #05-429/Upstate), in 25 mM Tris, 200 mM NaCl, 100 mM EDTA and 0.3% BSA, and left to stand overnight. • b) PI3K-ALPHAs (e.g. PI3Kalpha): The test substance, 1 ng of PI3Kalpha (#14-602, Upstate), 100 μM ATP and 20 μM PIP2 substrate (#P4508, Echelon) on a 384-well Optiplate (Perkin Elmer) for 1 h in 50 mM Hepes, 50 mM NaCl, 5 mM MgCl2, 0.05% Chaps, 5 mM DTT at pH 7.4. Subsequently, the kinase reaction was stopped by adding the ALPHA bead mix (10 μg/ml, #6760603/PerkinElmer), preincubated with 1 nM GST:Grp1 fusion protein (Upstate) and 15 nM biotinylated PIP3 (#C-39B6/Echelon) in 50 mM Hepes, 50 mM NaCl, 50 mM EDTA and 0.1% BSA, and left to stand overnight.
The fluorescence was detected the next morning in a Fusion™ alpha instrument (Perkin Elmer).
The calculation of % inhibition values per substance concentration was done by means of the following formula from the raw data determined in the Fusion™ alpha:
The controls were each determined 8 times, the substance samples each twice. 0% control contained neither any ATP nor any substrate; the 100% control contained no test substance. The IC50 values were determined with GraphPadPrism.

T1 sequence (P42336 whole entry, the tested form may be a part): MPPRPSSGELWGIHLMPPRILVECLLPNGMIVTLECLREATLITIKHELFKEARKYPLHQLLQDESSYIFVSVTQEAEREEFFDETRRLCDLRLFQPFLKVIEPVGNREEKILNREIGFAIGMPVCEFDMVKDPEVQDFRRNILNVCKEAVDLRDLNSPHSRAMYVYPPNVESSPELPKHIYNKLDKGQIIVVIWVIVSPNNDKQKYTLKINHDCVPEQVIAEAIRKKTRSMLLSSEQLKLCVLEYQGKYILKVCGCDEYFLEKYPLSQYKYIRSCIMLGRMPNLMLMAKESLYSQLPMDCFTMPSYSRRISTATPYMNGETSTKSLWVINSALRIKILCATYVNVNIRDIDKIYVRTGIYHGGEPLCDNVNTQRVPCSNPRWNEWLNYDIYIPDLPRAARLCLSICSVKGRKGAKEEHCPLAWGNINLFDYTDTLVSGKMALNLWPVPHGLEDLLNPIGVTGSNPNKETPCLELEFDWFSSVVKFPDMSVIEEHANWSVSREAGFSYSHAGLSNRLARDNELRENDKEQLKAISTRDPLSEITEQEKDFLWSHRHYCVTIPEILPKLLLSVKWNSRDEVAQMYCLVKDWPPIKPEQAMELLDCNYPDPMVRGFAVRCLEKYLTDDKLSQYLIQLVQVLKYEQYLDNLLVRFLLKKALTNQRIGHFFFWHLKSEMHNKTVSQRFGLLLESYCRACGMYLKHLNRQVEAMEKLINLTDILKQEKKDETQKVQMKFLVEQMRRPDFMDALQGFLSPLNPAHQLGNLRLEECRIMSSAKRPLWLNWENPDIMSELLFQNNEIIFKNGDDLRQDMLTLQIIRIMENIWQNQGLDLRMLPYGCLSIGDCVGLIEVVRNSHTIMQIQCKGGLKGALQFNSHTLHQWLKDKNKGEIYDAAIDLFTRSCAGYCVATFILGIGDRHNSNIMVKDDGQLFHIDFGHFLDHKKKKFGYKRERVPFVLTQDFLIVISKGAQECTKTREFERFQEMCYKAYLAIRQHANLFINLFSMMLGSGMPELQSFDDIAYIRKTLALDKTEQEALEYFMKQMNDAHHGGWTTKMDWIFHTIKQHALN
T1 sequence (P27986 whole entry partner, the tested form may be a part): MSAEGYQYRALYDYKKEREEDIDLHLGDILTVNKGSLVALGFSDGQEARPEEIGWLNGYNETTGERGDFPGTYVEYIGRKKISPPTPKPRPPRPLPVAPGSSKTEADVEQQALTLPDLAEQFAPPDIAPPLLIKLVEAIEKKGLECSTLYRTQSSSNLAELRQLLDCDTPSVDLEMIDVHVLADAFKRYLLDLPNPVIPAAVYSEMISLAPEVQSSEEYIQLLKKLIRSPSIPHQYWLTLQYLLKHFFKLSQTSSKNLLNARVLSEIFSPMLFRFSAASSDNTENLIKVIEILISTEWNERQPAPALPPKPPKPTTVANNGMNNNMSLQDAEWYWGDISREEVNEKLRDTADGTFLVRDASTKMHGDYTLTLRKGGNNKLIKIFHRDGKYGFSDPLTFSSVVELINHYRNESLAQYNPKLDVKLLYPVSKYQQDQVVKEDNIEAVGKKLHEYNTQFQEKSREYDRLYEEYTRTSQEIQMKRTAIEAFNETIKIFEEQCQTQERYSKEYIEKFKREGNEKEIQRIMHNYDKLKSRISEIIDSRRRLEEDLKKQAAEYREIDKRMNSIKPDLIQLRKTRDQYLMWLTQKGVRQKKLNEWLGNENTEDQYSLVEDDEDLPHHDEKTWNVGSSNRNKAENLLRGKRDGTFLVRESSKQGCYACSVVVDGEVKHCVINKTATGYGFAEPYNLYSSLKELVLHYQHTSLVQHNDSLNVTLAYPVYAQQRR

IC50 (PI3Kalpha): 1900 nM
melting point: 247 to 250 °C
SMILES: CCNC(=O)Nc1ccc2ncc(Nc3ccc(C)c(NS(C)(=O)=O)c3)nc2n1 [Compound 49, N-{5-[6-(3-Ethylurea)pyrido[2,3-b]pyrazin-3-ylamino]-2-methylphenyl}methanesulphonamide]
inhibition at 50 µM (PI3K →pAkt): 90%
